# Active and inactive are the calls of the source.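 The calls were made as follows: active = caspase luminescence falls with dose and the half-maximal concentration AC50 from the fitted curve is at or below a set limit; inconclusive = flat fit at 30 to 70% signal loss, or invalid fit; inactive = AC50 above the limit, or signal rises instead.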
# Test system: INS-1E cytokine-induced caspase-3/7, Caspase-Glo luminescence, 48 h
# Assay: suppression of cytokine-driven beta-cell apoptosis – INS-1E rat cells, luminescence, orthogonal assay for beta-cell apoptosis protection project, dose response (AID 463206)
row,SMILES,AC50
1,N#CC(C#N)=NNc1ccc(-n2ccc(C(F)(F)F)n2)cc1,> 26 µM (inactive)
2,Cc1ccccc1CS(=O)(=O)c1nnc([C@H](Cc2ccccc2)NC(=O)OC(C)(C)C)o1,> 26 µM (inactive)
3,Cc1ccc(NC(=O)C2CCN(S(=O)(=O)c3ccc4c(c3)NC(=O)C(C)S4)CC2)cc1Cl (stereo not drawn),> 26 µM (inactive)
4,COc1cccc(/C=N/Nc2cc(C)nc(-c3ccccc3O)n2)c1O,> 26 µM (inactive)
5,Cc1nc2ccccc2cc1OCc1ccc(F)cc1,> 26 µM (inactive)
6,O=C(COC(=O)c1cn(-c2ccccc2)nc1-c1ccccc1)c1cccc([N+](=O)[O-])c1,> 26 µM (inactive)
7,CC(=O)N(C)C1=C(N2CCOCC2)C(=O)c2ccccc2C1=O,> 26 µM (inactive)
8,CCOC(=O)CS(=O)(=O)c1nc(-c2ccccc2)cc(C(F)(F)F)n1,> 26 µM (inactive)
9,NC(=O)c1ccccc1OC1CCC1,> 26 µM (inactive)
10,c1ccc(CSc2ccc(-c3ccccn3)nn2)cc1,> 26 µM (inactive)
11,CCN(CC)c1ccc(/C=N/NC(=O)c2cccc(S(=O)(=O)Nc3ccccc3OC)c2)c(O)c1,> 26 µM (inactive)
12,CCCOC(=O)c1ccc(-[n+]2c(-c3ccccc3)cc(-c3ccccc3)cc2-c2ccccc2)cc1,> 26 µM (inactive)
13,CCOC(=O)N1CCN(S(=O)(=O)c2ccc(C(=O)NNc3nc4cc(C)cc(C)c4s3)cc2)CC1,> 26 µM (inactive)
14,CCOCCCNC(=O)c1c[nH]c2cc(OC)ccc2c1=O,> 26 µM (inactive)
15,COCCCNC(=O)Cn1nnc(-c2ccc(NC(=O)c3cccnc3)cc2)n1,> 26 µM (inactive)
16,Oc1cccc2ccc(Nc3ccccn3)nc12,> 26 µM (inactive)
17,Cc1cccc2sc(NNC(=O)c3ccc(S(=O)(=O)N4CCCC(C)C4)cc3)nc12 (stereo not drawn),> 26 µM (inactive)
18,CC(C)C[C@H](NC(=O)c1nc[nH]c1C(=O)N[C@@H](CC(C)C)C(=O)OC(C)(C)C)C(=O)OCc1ccccc1,> 26 µM (inactive)
19,O=C(N/N=C/c1ccccc1O)c1ccc2c(c1)OCO2,> 26 µM (inactive)
20,CN(C)c1ccc(/C=C(\C#N)C(=O)OCC(=O)N(C)C2CCS(=O)(=O)C2)cc1 (stereo not drawn),> 26 µM (inactive)
21,Nc1c(C(=O)Nc2ccc(S(=O)(=O)N3CCCC3)cc2)sc2nc3cc4c(cc3cc12)CCC4,> 26 µM (inactive)
22,CCCCC1CCC(C(=O)N(CC(C)C)c2c(N)n(Cc3ccccc3)c(=O)[nH]c2=O)CC1 (stereo not drawn),> 26 µM (inactive)
23,O=C([O-])c1cc(-c2ccccc2)cc(-c2ccccc2)[n+]1Cc1ccccc1,> 26 µM (inactive)
24,Cc1ccc(-c2nc(C(Cl)Cl)c3ccccc3n2)cc1,2.66 µM

row,SMILES,AC50
1,N=c1c2c(n(Cc3ccc(Cl)c(Cl)c3)c3c1CCC3)CCCC2,> 26 µM (inactive)
2,COc1cnc(-c2ccccn2)nc1Sc1ccccc1Cl,> 26 µM (inactive)
3,C=C[C@H](CC(C)C)N(Cc1ccccc1)S(=O)(=O)N(Cc1ccccc1)[C@@H](C=C)CC(C)C,> 26 µM (inactive)
4,O=[N+]([O-])c1ccc(N2CCN(CCOc3nonc3-c3ccccc3)CC2)c(Cl)c1,> 26 µM (inactive)
5,CNC(=S)N(Cc1cccs1)Cc1cc2cc(OC)c(OC)cc2[nH]c1=O,> 26 µM (inactive)
6,COc1cccc(-c2nc(-c3ccc(NC(=O)c4cccnc4)cc3)no2)c1,> 26 µM (inactive)
7,O=C(NCCOCCOCCNC(=O)c1cccnc1)c1cccnc1,> 26 µM (inactive)
8,COc1cccc(/C=N/Nc2ncnc3scc(-c4ccccc4)c23)c1O,> 26 µM (inactive)
9,Cn1ncc2c(N3CCN(c4ccc(Cl)c(Cl)c4)CC3)ncnc21,> 26 µM (inactive)
10,O=C(NCc1cccnc1)c1ccc([N+](=O)[O-])cc1,> 26 µM (inactive)
11,CC[C@H]1CN2CCc3cc(OC)c(OC)cc3[C@@H]2C[C@@H]1C[C@H]1NCCc2cc(OC)c(OC)cc21,> 26 µM (inactive)
12,O=C(NNC(=O)C12CC3CC(CC(C3)C1)C2)c1ccccn1,> 26 µM (inactive)
13,CC(NC(=O)C1CCC(C(=O)NC(C)c2ccccc2)CC1)c1ccccc1 (stereo not drawn),> 26 µM (inactive)
14,COc1ccc(S(=O)(=O)N2CCNCC2)cc1OC,> 26 µM (inactive)
15,COc1ccc(NC(=O)CN(C)C(=O)/C=C/c2ccc(S(=O)(=O)N3CCCCCC3)cc2)cc1,> 26 µM (inactive)
16,N#Cc1c([N+](=O)[O-])cc([N+](=O)[O-])cc1S(=O)(=O)Cc1ccccc1,> 26 µM (inactive)
17,CCOc1ccc2nc(NC(=O)c3ccccn3)sc2c1,> 26 µM (inactive)
18,COc1cccc(/C=N/Nc2nc(Nc3ccccc3)nc(-n3nc(C)cc3C)n2)c1O,> 26 µM (inactive)
19,COc1ccc(/C(C)=N/NC(=O)c2cccc(S(=O)(=O)N3CCCC3)c2)c(O)c1,> 26 µM (inactive)
20,CCN(CC)c1ccc(/C=N/NC(=O)c2cccc(S(=O)(=O)N3CCOCC3)c2)c(O)c1,> 26 µM (inactive)
21,Cc1cccc2sc(NNC(=O)c3ccc(S(=O)(=O)N4CC(C)CC(C)C4)cc3)nc12 (stereo not drawn),> 26 µM (inactive)
22,Cc1ccc(C)c(S(=O)(=O)N2CCN(Cc3ccc(O)c4ncccc34)CC2)c1,> 26 µM (inactive)
23,Cc1ccc(NC2=C/C(=N/S(=O)(=O)c3cccs3)c3ccccc3C2=O)cc1,> 26 µM (inactive)
24,N/C(=N\OC(=O)c1cccc(Cn2cc(C(F)(F)F)ccc2=O)c1)c1ccccc1,> 26 µM (inactive)

row,SMILES,AC50
1,CCCCCn1c(=O)c(C(=O)Nc2nc3ccccc3[nH]2)c(O)c2ccccc21,> 26 µM (inactive)
2,CCn1c(=O)c(C(=O)Nc2nc3ccccc3[nH]2)c(O)c2ccccc21,> 26 µM (inactive)
3,CCOC(=O)c1cnc(-n2nc(C)cc2C)nc1NNc1nc(-c2ccccc2)cc(-c2ccccc2)n1,> 26 µM (inactive)
4,O=[N+]([O-])c1ccc(-c2nc3ccc([N+](=O)[O-])cc3[nH]2)cc1,> 26 µM (inactive)
5,Cc1cc(Cl)c(S(=O)(=O)N2CCN(c3ccc(F)cc3)CC2)cc1OCC(=O)NC1CCCCC1,> 26 µM (inactive)
6,O=C(c1cc(-c2ccccc2Cl)nc2ccccc12)N1CCN(c2ccccn2)CC1,3.83 µM
7,CCN1c2ccccc2N(C)C1(C)c1ccccc1 (stereo not drawn),> 26 µM (inactive)
8,C#CCOCCOCCOCCNc1nc(N2CCN(C(=O)CCCCCCCCCCNC(=O)[C@H]([C@@H](C)CC)n3cc(CCCCN=C(N)N)nn3)CC2)nc(N2CCN(C(=O)CCCCCCCCCCNC(=O)[C@H](CCCCN)n3cc(C)nn3)CC2)n1,> 26 µM (inactive)
9,Oc1[nH]c2ccccc2c1N=NC(=S)N1CCOCC1,> 26 µM (inactive)
10,CCCC(=O)NC(c1ccc(OC)cc1)c1ccc2cccnc2c1O (stereo not drawn),> 26 µM (inactive)
11,Cn1ncnc2c(=O)n(C)c(=O)nc1-2,> 26 µM (inactive)
12,O=C(N/N=C/c1ccc([N+](=O)[O-])o1)c1ccc(O)cc1,> 26 µM (inactive)
13,N#CC1=C(N)Oc2c(ccc3cccnc23)C1c1ccccc1 (stereo not drawn),> 12 µM (inactive)
14,Cc1ccc(C(=O)C[n+]2cc(-c3ccc(C)cc3)n3c2CCCCC3)cc1,> 26 µM (inactive)
15,CCCOc1ccc(C(=O)C(CN2CCOCC2)c2ccccc2)cc1 (stereo not drawn),> 12 µM (inactive)
16,O=C(NCc1cccnc1)/C(=C\c1ccc(-c2ccc(Br)cc2)o1)S(=O)(=O)c1ccccc1,> 26 µM (inactive)
17,Cc1c(N/N=C(\C#N)C(=O)c2ccc(Cl)cc2)c(=O)n(-c2ccccc2)n1C,> 26 µM (inactive)
18,Cc1sc2ncnc(NCC(C)(C)N3CCOCC3)c2c1C,> 26 µM (inactive)
19,O=[N+]([O-])c1c(Nc2ccc(O)cc2)cc(Cl)c2nonc12,> 26 µM (inactive)
20,O=C(CC(O)(C(F)(F)F)C(F)(F)F)Nc1ccc(Cl)c(Cl)c1,> 26 µM (inactive)
21,Oc1ccc2ccccc2c1N=Nc1nccs1,> 26 µM (inactive)
22,O=C(N/N=C\c1cc(Br)ccc1O)c1ccc(S(=O)(=O)N2CCCCC2)cc1,> 26 µM (inactive)
23,CCCCCCCCCCCCCCCC[n+]1cccc(C(=O)N(CC)CC)c1,> 26 µM (inactive)
24,N#C/C(N=Nc1ccccc1O)=N\Nc1ccccc1O,> 26 µM (inactive)

row,SMILES,AC50
1,CCOc1cc(C)c(S(=O)(=O)Nc2ccc3cn[nH]c3c2)cc1C,> 12 µM (inactive)
2,CCCC(=O)NC(c1ccccc1Cl)c1ccc2cccnc2c1O (stereo not drawn),> 26 µM (inactive)
3,C=CCn1c(C)c(/C=C/c2cc[n+](C)cc2)c2ccccc21,> 26 µM (inactive)
4,CNC(=O)c1cc(Oc2ccc(NC(=O)Nc3ccc(Cl)c(C(F)(F)F)c3)cc2)ccn1,> 26 µM (inactive)
5,Cc1ccc(-c2cn(-c3ccc(SC(F)F)cc3)c3[n+]2CCC3)cc1,> 26 µM (inactive)
6,COc1cc(CN2CCN(c3cc(C)ccc3C)CC2)ccc1O,> 26 µM (inactive)
7,Cn1cccc1C1C=C(c2ccc(C(C)(C)C)cc2)Nc2ncnn21 (stereo not drawn),> 26 µM (inactive)
8,O=C(Nc1cccc(Cl)c1)Nc1nnc(CSCCOc2ccc(Cl)cc2)s1,> 26 µM (inactive)
9,CCN(Cc1ccccc1)C(c1ccc(C(F)(F)F)cc1)c1nnnn1C(C)(C)C (stereo not drawn),> 26 µM (inactive)
10,CCCCCCCC(=O)Nc1ccc(C(=O)N/N=C/c2cccc([N+](=O)[O-])c2)cc1,> 26 µM (inactive)
11,Cc1ccc(C)c(N2CCN(C(=O)CCCOc3cc(=O)n(C)c4ccccc34)CC2)c1,> 12 µM (inactive)
12,CC1CN(S(=O)(=O)c2ccc(C(=O)NCCCn3ccnc3)cc2)CC(C)O1 (stereo not drawn),> 26 µM (inactive)
13,C/C(=N\NC(=O)C(C)n1nc(C)c([N+](=O)[O-])c1C)c1ccccc1O (stereo not drawn),> 26 µM (inactive)
14,O=C(Cn1c(-c2ccccc2)c[n+]2ccsc12)c1ccc([N+](=O)[O-])cc1,> 26 µM (inactive)
15,O=[N+]([O-])c1ccc(O)c(/C=N/Nc2nc3ccccc3[nH]2)c1,> 26 µM (inactive)
16,Cc1[nH]nc2nc(SCC(=O)NCCC3=CCCCC3)n(-c3ccc(Br)cc3)c(=N)c12,> 26 µM (inactive)
17,Cc1ccc2nc(NC(=O)c3ccccn3)sc2c1,> 26 µM (inactive)
18,C=CCN(CC=C)CC(O)Cn1c2ccccc2c2ccccc21 (stereo not drawn),> 26 µM (inactive)
19,Cc1ccc(CSC(Nc2ccc(F)cc2)=C(C#N)C#N)cc1,> 26 µM (inactive)
20,C/C(=N\NC(=O)Cc1ccc(Cl)cc1)c1ccccn1,> 26 µM (inactive)
21,Cc1ccccc1C(=O)Nc1cccc(C(=O)N/N=C/c2cc(Cl)cc([N+](=O)[O-])c2O)c1,> 26 µM (inactive)

# From PubChem BioAssay AID463206 (Broad Institute, 2010)
